Where a name gives a salt, the structure may show the parent alone. One block for each molecule: values may come before it.
What was measured:
[1] = molecular target: T1, β-adrenergic receptors (guinea pig tracheal strips) (Cavia porcellus, UniProt Q8K4Z4); assay: β-blocking activity in vitro, guinea pig tracheal strips (tension response to isoproterenol); assay type: cell-based; details: vs isoproterenol, 60 minute incubation, 37° C., read-out: pA2 Trachea (converted)
T1 construct: from tissue; host or cells: guinea pig trachea (isolated spiral strips)
Experimental: (§1) Each tissue was suspended between a fixed glass rod and a Statham® Universal Transducer connected to a Beckman® recorder. Atria were allowed to beat spontaneously under a loading tension of approximately 0.5 gm. Instrinsic depressant or stimulant activity was determined for each compound by progressively increasing concentrations in the tissue baths at 60-minute intervals. Tissues were not washed between increments. The maximum concentration showing little or no cardiodepressant activity was chosen for blockade experiments. Changes in rate in response to isoproterenol were measured in the absence and presence of test compounds. Spiral strips of guinea pig trachea were suspended under 5 gm resting tension and incubated with phentolamine, tropolone and cocaine. Active tension was generated by addition of carbachol (3.0×10^-7 M) and decreases in tension in response to isoproterenol were quantitated. Cumulative concentration-response curves were produced with isoproterenol both before and after 60 minute incubation of test compounds with atria and trachea. The blocking potency of test compounds was estimated by computing pA2 values (-log […]) by the method of Furchgott, The Pharmacological Differentiation of Adrenergic Receptors, Ann. […] The degree of cardioselectivity was estimated from the ratio, KB trachea/KB atria (10^(pA.sbsp.2^atria-pA.sbsp.2^trachea)). A ratio greater than one indicates cardioselectivity. Test drugs were dissolved in distilled water and added to the bath (30 ml) in a volume of 10 or 100 μl.

[2] = Disappearance in vitro in dog whole blood; assay type: in vitro ADME; details: 50 μg test compound, 37° C., read-out: T1/2 Dog Whole Blood
Experimental: (§2) The rate of disappearance of a compound is expressed as the half-life (T1/2), which is the time period in which one half of the initial amount of compound tested disappears. […] The samples were incubated in a Dubnoff shaking metabolic incubator for 2.5, 5.0, 10.0, 20.0, 30.0 and 60.0 minutes at 37° C. At the designated time periods, the test mixtures were removed from the incubator and transferred to a 0° C. ice bath. Acetonitrile (2 ml) was immediately added and the mixtures were mixed to stop enzymatic hydrolysis. Zero time samples were prepared by adding 2 ml. of acetonitrile to denature the proteins prior to addition of the test compounds. After centrifugation to sediment denatured proteins, 2 ml. of the supernatant was removed and analyzed by high pressure liquid chromatography, using a mobile phase of 60% acetonitrile/40% 0.05 m sodium phosphate buffer (pH 6.6), a U.V. detector and Waters® μ Bondapak Phenyl column. The half life of each test compound was determined graphically by plotting the decrease in concentration as a function of time.

[3] = tested on: heart rate response to isoproterenol; assay: Duration of beta-blockade in vivo, anesthetized dogs, 3-hour infusion; details: dog; for 80% Recovery Time: after termination of 3-hour infusion; for % I (Percent inhibition of heart rate response to isoproterenol): end of 3-hour infusion, bolus isoproterenol 0.5 μg/kg
Experimental: (§3) The duration of beta-blockade was determined in vivo using pentobarbitalanesthetized dogs instrumented for measurement of heart rate using a Beckman® cardiotachometer triggered electronically by a phasic aortic blood pressure signal. Both vagus nerves were severed in the cervical region and the animals were mechanically ventilated. Two experimental designs were used. The first employed a 40-minute infusion of test compound and the second used a 3-hour infusion of test compound. In the 40-minute model, isoproterenol was infused into a foreleg vein at the rate of 0.5 μg/kg/min to induce a beta-receptor mediated tachycardia. Various doses of test compound where then infused into a femoral vein over a period of 40 minutes. This infusion was then terminated and recovery from blockade was quantitated. […] This cumulative dose is expressed as mg/kg and is an indication of potency. The time period required for 80% recovery of heart rate for each dose of test drug was also measured to quantitate duration of action. […] Test compounds were dissolved in 0.9% NaCl and infused at a rate of 0.05 ml/kg/min or less. In the 3-hour infusion model, bolus doses of isoproterenol (0.5 μg/kg) were used to assess the degree of beta-blockade and recovery from beta-blockade after termination of the infusion. The doses were spaced at 10-minute intervals and were given before, during and following the infusion of test compounds. The infusion rate was adjusted so that at the end of the 3-hour infusion period the degree of isoproterenol inhibition averaged about 50% of control.

[4] = molecular target: T2, β-adrenergic receptors (guinea pig right atria) (Cavia porcellus, UniProt H0W3H1); assay: β-blocking activity in vitro, guinea pig right atria (rate response to isoproterenol); assay type: cell-based; details: vs isoproterenol, guinea pig right atria, 60 minute incubation, 37° C.; for Kb: read-out: pA2 Atria (converted)
T2 construct: Atria were allowed to beat spontaneously under a loading tension; from tissue; host or cells: guinea pig right atria (isolated, spontaneously beating)
Experimental: as §1

[5] = Disappearance in vitro in human whole blood; assay type: in vitro ADME; details: 50 μg test compound, 37° C., read-out: T1/2 Human Whole Blood
Experimental: as §2

[6] = tested on: β-adrenergic receptors (guinea pig right atria); assay: β-blocking activity in vitro, guinea pig right atria (rate response to isoproterenol); assay type: cell-based; details: ratio from pA2 atria and trachea; greater than one indicates cardioselectivity
Experimental: as §1

[7] = tested on: heart rate response to isoproterenol; assay: Duration of beta-blockade in vivo, anesthetized dogs, 40-minute infusion; parameters: species or system dog; details: for Recovery Times 50%: 50% recovery of heart rate after 40-minute infusion; for Recovery Times 50% / Recovery Times 80% / Recovery Times 100%: normalized to 50% inhibition, dog; for Recovery Times 80%: 80% recovery of heart rate after 40-minute infusion; for Recovery Times 100%: 100% recovery of heart rate after 40-minute infusion; for ED50: Canis lupus familiaris, iv, 40 min, read-out: Potency
Experimental: as §3

T1 sequence (Q8K4Z4 whole entry): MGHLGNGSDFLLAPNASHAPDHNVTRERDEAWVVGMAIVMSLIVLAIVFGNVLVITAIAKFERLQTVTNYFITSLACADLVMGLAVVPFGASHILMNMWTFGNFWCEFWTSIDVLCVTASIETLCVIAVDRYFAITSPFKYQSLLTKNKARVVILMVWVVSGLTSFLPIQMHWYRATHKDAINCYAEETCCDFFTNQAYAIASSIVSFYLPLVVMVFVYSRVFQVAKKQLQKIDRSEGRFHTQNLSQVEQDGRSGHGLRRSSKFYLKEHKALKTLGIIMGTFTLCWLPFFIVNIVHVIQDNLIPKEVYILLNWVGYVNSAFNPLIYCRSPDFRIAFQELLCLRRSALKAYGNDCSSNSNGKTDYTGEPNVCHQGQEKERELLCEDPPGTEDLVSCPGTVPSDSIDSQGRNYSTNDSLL
T2 sequence (H0W3H1 1-470): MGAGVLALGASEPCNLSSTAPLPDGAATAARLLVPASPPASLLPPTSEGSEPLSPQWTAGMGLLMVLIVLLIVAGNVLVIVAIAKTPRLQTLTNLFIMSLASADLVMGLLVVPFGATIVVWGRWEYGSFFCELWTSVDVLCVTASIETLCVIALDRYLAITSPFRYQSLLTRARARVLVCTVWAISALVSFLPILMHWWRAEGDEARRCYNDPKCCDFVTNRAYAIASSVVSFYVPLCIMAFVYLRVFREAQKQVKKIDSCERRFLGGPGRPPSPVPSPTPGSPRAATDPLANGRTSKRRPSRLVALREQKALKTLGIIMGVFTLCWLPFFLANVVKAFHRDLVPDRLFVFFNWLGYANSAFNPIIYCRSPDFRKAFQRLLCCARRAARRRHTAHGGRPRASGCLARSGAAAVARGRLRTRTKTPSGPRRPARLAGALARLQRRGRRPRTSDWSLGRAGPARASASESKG

Kb [1]: 0.501 µM
SMILES: CC(C)NCC(O)COC(=O)c1ccc(CO)cc1 (centres unmarked) [Example LXIV, [2-Hydroxy-3(isopropylamino)]propyl 4-(hydroxymethyl)benzoate hydrochloride]

SMILES: CC(C)(C)NCC(O)COC(=O)c1ccccc1 (centres unmarked) [XXXVII]
half-life [2]: 5.5 min
80% Recovery Time [3]: > 60 min
% I (Percent inhibition of heart rate response to isoproterenol) [3]: 64 ± 5%
Kb [4]: 0.158 µM
half-life [5]: 5.3 ± 1 min
Kb [1]: 0.02 µM

SMILES: CC(C)NCC(O)COC(=O)c1ccc(N)cc1 (centres unmarked) [Example LIV, [2-Hydroxy-3-(isopropylamino)]propyl 4-aminobenzoate hydrochloride]
80% Recovery Time [3]: > 60 min
% I (Percent inhibition of heart rate response to isoproterenol) [3]: 80 ± 4%

Kb [4]: 0.0158 µM
Kb [1]: 0.0316 µM
SMILES: COc1ccc(CCNCC(O)COC(=O)c2ccccc2Cl)cc1OC (centres unmarked) [XIII]
Cardioselectivity KB (Trachea)/KB (Atria) [6]: 2
Recovery Times 50% [7]: 7 min
Recovery Times 80% [7]: 12 ± 1 min
Recovery Times 100% [7]: 24 min
ED50 [7]: 2 ± 0.6 mg/kg

half-life [2]: 13 min
half-life [5]: 11 ± 5 min
SMILES: CC(C)(C)NCC(O)COC(=O)c1ccc(F)cc1 (centres unmarked) [XL]

Kb [4]: 0.398 µM
Kb [1]: 0.631 µM
SMILES: COc1ccc(CCNCC(O)COC(=O)c2cccc(F)c2)cc1OC (centres unmarked) [XXXIV]
Cardioselectivity KB (Trachea)/KB (Atria) [6]: 2

SMILES: COc1ccc(CCNCC(O)COC(=O)c2cccc(C)c2)cc1OC (centres unmarked) [Example IX]
Recovery Times 50% [7]: 6 ± 1 min
Recovery Times 80% [7]: 10 ± 1 min
Recovery Times 100% [7]: 16 ± 2 min
ED50 [7]: 4.7 ± 1.7 mg/kg

Kb [4]: 0.158 µM
Kb [1]: 0.0631 µM
SMILES: CC(C)NCC(O)COC(=O)c1ccc(O)cc1 (centres unmarked) [LVI]
% I (Percent inhibition of heart rate response to isoproterenol) [3]: 79 ± 9%

Kb [4]: 1.26 µM
Kb [1]: 1.26 µM
SMILES: COc1ccc(CCNCC(O)C(=O)Oc2ccccc2)cc1OC (centres unmarked) [Example I, N-(3,4-Dimethoxyphenethyl)-N-[(2-hydroxy-2-phenoxycarbonyl)ethyl-]amine Hydrochloride]
Cardioselectivity KB (Trachea)/KB (Atria) [6]: 1
Recovery Times 50% [7]: 6 ± 1 min
Recovery Times 80% [7]: 11 ± 1 min
Recovery Times 100% [7]: 16 ± 2 min
ED50 [7]: 3.5 ± 0.5 mg/kg

SMILES: CC(C)NCC(O)COc1cccc2ccccc12 (centres unmarked) [Propranolol, reference compound]
80% Recovery Time [3]: > 60 min
Recovery Times 50% [7]: 23 ± 4 min
Recovery Times 80% [7]: 42 ± 8 min
Recovery Times 100% [7]: 58 ± 9 min

half-life [2]: 50 min
half-life [5]: 8 ± 4 min
Kb [1]: 0.1 µM
SMILES: CC(C)NCC(O)COC(=O)c1cccc(F)c1 (centres unmarked) [XIX]

Kb [4]: 0.158 µM
Kb [1]: 0.0501 µM
SMILES: Cc1cccc(C(=O)OCC(O)CNC(C)C)c1 (centres unmarked) [Example VIII]
Recovery Times 50% [7]: 7 ± 1 min
Recovery Times 80% [7]: 14 ± 3 min
Recovery Times 100% [7]: 20 ± 4 min
ED50 [7]: 1.83 ± 0.11 mg/kg

Kb [4]: 0.251 µM
SMILES: CCCOc1ccccc1C(=O)OCC(O)CNC(C)C (centres unmarked) [XXVII]
80% Recovery Time [3]: > 60 min
% I (Percent inhibition of heart rate response to isoproterenol) [3]: 69%

Kb [4]: 0.158 µM
Kb [1]: 0.0631 µM
SMILES: CC(C)NCC(O)COC(=O)c1cccc([N+](=O)[O-])c1 (centres unmarked) [Example XXI]

half-life [2]: 150 min
half-life [5]: 5.5 ± 2.6 min
SMILES: Cc1cccc(C(=O)OCC(O)CNC(C)(C)C)c1 (centres unmarked) [XLII]

Kb [4]: 0.1 µM
Kb [1]: 0.501 µM
SMILES: COc1ccc(CCNCC(O)COC(=O)c2ccccc2)cc1OC (centres unmarked) [Example VII]
80% Recovery Time [3]: 29 ± 5 min
% I (Percent inhibition of heart rate response to isoproterenol) [3]: 45 ± 2%
Cardioselectivity KB (Trachea)/KB (Atria) [6]: 5

Kb [4]: > 3.16 µM
SMILES: COc1ccc(CCNCC(O)COC(=O)c2ccc(CO)cc2)cc1OC (centres unmarked) [LXVI, [2-Hydroxy-3-[(N3,4-dimethoxyphenethyl)amino]propyl 4-(hydroxymethyl) benzoate oxalate]

Kb [4]: 0.251 µM
Kb [1]: 0.1 µM
SMILES: CC(C)NCC(O)COC(=O)c1cccc2ccccc12 (centres unmarked) [XV]
80% Recovery Time [3]: > 60 min
% I (Percent inhibition of heart rate response to isoproterenol) [3]: 54%
Recovery Times 50% [7]: 18 min
Recovery Times 80% [7]: 22 min
Recovery Times 100% [7]: 38 min
ED50 [7]: 1.5 mg/kg

Kb [4]: > 1 µM
SMILES: CC(C)NCC(O)COC(=O)c1ccc(OCc2ccccc2)cc1 (centres unmarked) [XXX]

Kb [4]: 0.398 µM
Kb [1]: 0.158 µM
SMILES: CC(C)NCC(O)COC(=O)c1cccc(N)c1 (centres unmarked) [Example LV]

Kb [4]: 1.26 µM
SMILES: COc1ccc(CCNCC(O)C(=O)Oc2ccccc2C)cc1OC (centres unmarked) [II]

half-life [2]: 7 min
half-life [5]: 1.7 ± 0.6 min
Kb [1]: 0.0794 µM
SMILES: CC(C)NCC(O)COC(=O)c1ccccc1F (centres unmarked) [XVIII]
80% Recovery Time [3]: 25 ± 9 min
% I (Percent inhibition of heart rate response to isoproterenol) [3]: 46 ± 5%
Recovery Times 80% [7]: 8 ± 1 min
ED50 [7]: 1.5 mg/kg

Kb [4]: 0.398 µM
Kb [1]: 0.251 µM
SMILES: CC(C)NCC(O)COC(=O)c1ccc2ccccc2c1 (centres unmarked) [XVI]

pA2 Atria [4]: inactive
Kb [1]: 10 µM
SMILES: COc1ccccc1COC(=O)C(O)CNCCc1ccc(OC)c(OC)c1 (centres unmarked) [Example V, 2-Methoxybenzyl 3-[[N-(3,4-Dimethoxyphenethyl)]amino]-2-hydroxypropionate]
Potency ([7]; cumulative dose over 40-minute infusion, normalized to 50% inhibition of isoproterenol response, dog i.v.): low

SMILES: COc1ccc(CCNCC(O)COC(=O)c2ccccc2C)cc1OC (centres unmarked) [XXXI]
80% Recovery Time [3]: > 60 min
% I (Percent inhibition of heart rate response to isoproterenol) [3]: 85%

Kb [4]: 0.158 µM
SMILES: CCC(C)(C)NCC(O)COC(=O)c1ccccc1F (centres unmarked) [LIII]

half-life [2]: 4 min
Kb [4]: 0.251 µM
half-life [5]: 3.5 ± 0.9 min
Kb [1]: 0.0501 µM
SMILES: CC(C)NCC(O)COC(=O)c1ccc(F)cc1 (centres unmarked) [Example XX]

Kb [4]: 0.1 µM
Kb [1]: 0.2 µM
SMILES: COc1ccc(CCNCC(O)COC(=O)c2ccc(F)cc2)cc1OC (centres unmarked) [XXXV]
80% Recovery Time [3]: > 60 min
% I (Percent inhibition of heart rate response to isoproterenol) [3]: 59%
Cardioselectivity KB (Trachea)/KB (Atria) [6]: 2

Kb [4]: 1.26 µM
SMILES: CCCNCC(O)COC(=O)c1ccc(N)cc1 (centres unmarked) [LXV, [2-Hydroxy-3-(n-propyl)amino]propyl 4-aminobenzoate oxalate]

half-life [2]: > 180 min
half-life [5]: > 180 min
SMILES: Cc1ccccc1C(=O)OCC(O)CNC(C)(C)C (centres unmarked) [XLI]

Kb [4]: 0.251 µM
Kb [1]: 1 µM
SMILES: COc1ccc(CCNCC(O)COC(=O)c2ccc(C)cc2)cc1OC (centres unmarked) [Example XI]
Cardioselectivity KB (Trachea)/KB (Atria) [6]: 4
Recovery Times 50% [7]: 8 ± 1 min
Recovery Times 80% [7]: 16 ± 2 min
Recovery Times 100% [7]: 25 ± 3 min
ED50 [7]: 17.2 ± 5.8 mg/kg

Kb [4]: 0.794 µM
Kb [1]: 2 µM
SMILES: COc1ccc(CCNCC(O)COC(=O)c2ccccc2F)cc1OC (centres unmarked) [XXXIII]
Cardioselectivity KB (Trachea)/KB (Atria) [6]: 2.5

Kb [4]: 1.58 µM
Kb [1]: 6.31 µM
SMILES: CC(=O)Nc1ccc(C(=O)OCC(O)CNC(C)C)cc1 (centres unmarked) [Example LXII, [2-Hydroxy-3-(isopropylamino)]propyl 4-(acetamido)benzoate hydrochloride]
Cardioselectivity KB (Trachea)/KB (Atria) [6]: 4

— patent publication US4405642A, “Method for treatment or prophylaxis of cardiac disorders” (American Hospital Supply Corporation, priority 1980, dated 1983)
